# From US20250304574A1, “3,4,6,7-TETRAHYDRO-2,7-NAPHTHYRIDINE-2(1H)-CARBOXAMIDE DERIVATIVES AS GPR65 INHIBITORS FOR THE TREATMENT OF CANCER AND AUTOIMMUNE DISEASES” (Pathios Therapeutics Limited, priority 2022, published 2025)
# Molecular target: human recombinant GPR65 (Homo sapiens, UniProt Q8IYL9)
# Assay: Human GPR65 cAMP HTRF antagonist assay
# Format: cell-based
# Conditions: 1321N1 cells stably expressing human recombinant GPR65, assay pH 7.2, read-out: hGPR65 IC50
# Description: Human GPR65 Cyclic Adenosine Monophosphate (cAMP) Homogeneous Time Resolved Fluorescence (HTRF) Antagonist Assay Procedure
# IC50 data was obtained by the following procedure:
# 1321N1 human astrocytoma cells stably expressing human recombinant GPR65 (1321N1-hrGPR65 cells, EuroscreenFast) were cultured according to the vendor's instructions.
# Compounds were tested for their ability to antagonise GPR65, through measuring the concentration of cytoplasmic cAMP following treatment of the cells at a pH of 7.2 to activate GPR65 signalling and addition of the compound to be tested. The extent to which the expected rise in cAMP concentration upon GPR65 activation was suppressed by the added compound is indicative of its potency. The assay was carried out according to EuroscreenFast assay Methodology as follows.
# On the day of the assay, test compounds were added to 384-well, low volume, white microtiter plates by acoustic dispensing. KRH buffer (5 mM KCl, 1.25 mM MgSO4, 124 mM NaCl, 25 mM HEPES, 13.3 mM Glucose, 1.25 mM KH2PO4 and 1.45 mM CaCl2) was adjusted to pH 6.5, pH 7.6 and pH 8.4 by adding NaOH. 1321N1-hGPR65 cells were rapidly thawed and diluted in KRH, pH 7.6 prior to centrifugation at 300×g for 5 min and resuspension in assay buffer (KRH, pH 7.6, supplemented with 1 mM 3-isobutyl-1-methylxanthine (IBMX) and 200 μM ethylenediaminetetraacetic acid (EDTA)). Cells were added to assay plates at a density of 2,000 cells per well in a volume of 5 μl. Assay plates were briefly centrifuged at 100×g and then incubated at room temperature for 30 min. Cells were stimulated by the addition of 5 μL KRH, pH 6.5, to achieve an assay pH of 7.2, while control wells received 5 μl KRH, pH 8.4 to achieve an assay pH of 7.9. Assay plates were briefly centrifuged at 100×g and then incubated at room temperature for 30 min.
# Accumulation of cAMP was detected by cAMP HTRF kit (Cisbio). d2-labeled cAMP and cryptate-labeled anti-cAMP antibody in Lysis and Detection Buffer (Cisbio) were added to assay plates, and the plates were incubated at room temperature for 1 h. HTRF measurements were performed using a Pherastar FSX instrument. Acceptor and donor emission signals were measured at 665 nm and 620 nm, respectively, and HTRF ratios were calculated as signal665 nm/signal620nm×10^4. Data were normalised to high and low control values and fitted with 4-parameter logistic regression to determine hGPR65 IC50 values for the test compounds, which are shown in Table 1.
# Chain of human recombinant GPR65 (Q8IYL9 whole entry): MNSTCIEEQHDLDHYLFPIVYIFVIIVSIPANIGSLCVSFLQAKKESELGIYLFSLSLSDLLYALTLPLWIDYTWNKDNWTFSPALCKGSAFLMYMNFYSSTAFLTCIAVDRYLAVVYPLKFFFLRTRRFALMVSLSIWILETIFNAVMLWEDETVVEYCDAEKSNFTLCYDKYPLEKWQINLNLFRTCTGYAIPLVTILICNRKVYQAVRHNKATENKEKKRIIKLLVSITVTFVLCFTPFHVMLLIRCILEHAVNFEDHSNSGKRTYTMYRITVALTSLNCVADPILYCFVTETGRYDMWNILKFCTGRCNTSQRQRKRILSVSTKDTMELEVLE
row,IC50,Structure (SMILES)
1,< 500 nM,"C[C@H]1CN(C(=O)Nc2cc(Cl)c(C(F)(F)F)cc2F)Cc2ccnc(F)c21 (single isomer, unassigned; isomer 2) [Compound 29, N-(5-chloro-2-fluoro-4-(trifluoromethyl)phenyl)-5-fluoro-4-methyl-3,4-dihydro-2,6-naphthyridine-2(1H)-carboxamide isomer 2]"
2,< 500 nM,"O=C(Nc1cc(Cl)c(Cl)cn1)N1CCc2c(ccnc2F)C1 [Compound 19, N-(4,5-Dichloropyridin-2-yl)-5-fluoro-3,4-dihydro-2,6-naphthyridine-2(1H)-carboxamide]"
3,500 to 5000 nM,"O=C1NN=C2CN(C(=O)Nc3cc(Cl)c(C(F)(F)F)cc3F)CC=C2N1 [Compound 14, N-(5-Chloro-2-fluoro-4-(trifluoromethyl)phenyl)-3-oxo-2,4,6,8-tetrahydropyrido[4,3-e][1,2,4]triazine-7(3H)-carboxamide]"
4,< 500 nM,"C[C@H]1CN(C(=O)Nc2cc(Cl)c(C(F)(F)F)cc2F)Cc2c[nH]c(=O)cc21 (single isomer, unassigned; isomer 2) [Compound 26, N-(5-chloro-2-fluoro-4-(trifluoromethyl)phenyl)-4-methyl-6-oxo-3,4,6,7-tetrahydro-2,7-naphthyridine-2(1H)-carboxamide isomer 2]"
5,< 500 nM,"O=C(Nc1nnc(C(F)(F)F)s1)N1CCc2cc(Cl)ccc2C1 [Compound 10, 6-Chloro-N-(5-(trifluoromethyl)-1,3,4-thiadiazol-2-yl)-3,4-dihydroisoquinoline-2(1H)-carboxamide]"
6,< 500 nM,"O=C(Nc1cc(Cl)c(C(F)(F)F)cc1F)N1CCc2cc(=O)[nH]nc2C1 [Compound 15, N-(5-Chloro-2-fluoro-4-(trifluoromethyl)phenyl)-3-oxo-2,5,6,8-tetrahydropyrido[3,4-c]pyridazine-7(3H)-carboxamide]"
7,< 500 nM,"CC1CN(C(=O)Nc2cc(Cl)c(C(F)(F)F)cc2F)Cc2ccnc(F)c21 (centres unmarked) [Compound 23, N-(5-Chloro-2-fluoro-4-(trifluoromethyl)phenyl)-5-fluoro-4-methyl-3,4-dihydro-2,6-naphthyridine-2(1H)-carboxamide]"
8,< 500 nM,"O=C(Nc1cc(Cl)c(C(F)(F)F)cc1F)N1CCc2c(ccnc2F)C1 [Compound 17, N-(5-Chloro-2-fluoro-4-(trifluoromethyl)phenyl)-5-fluoro-3,4-dihydro-2,6-naphthyridine-2(1H)-carboxamide]"
9,< 500 nM,"O=C(Nc1cc(Cl)c(Br)cc1F)N1CCc2cc(=O)[nH]cc2C1 [Compound 3, N-(4-Bromo-5-chloro-2-fluorophenyl)-6-oxo-3,4,6,7-tetrahydro-2,7-naphthyridine-2(1H)-carboxamide]"
10,500 to 5000 nM,"O=C(Nc1nnc(C(F)(F)F)s1)N1CCc2cc(=O)[nH]cc2C1 [Compound 7, 6-Oxo-N-(5-(trifluoromethyl)-1,3,4-thiadiazol-2-yl)-3,4,6,7-tetrahydro-2,7-naphthyridine-2(1H)-carboxamide]"
11,< 500 nM,"C[C@@H]1CN(C(=O)Nc2cc(Cl)c(C(F)(F)F)cc2F)Cc2c[nH]c(=O)cc21 (single isomer, unassigned; isomer 1) [Compound 25, N-(5-chloro-2-fluoro-4-(trifluoromethyl)phenyl)-4-methyl-6-oxo-3,4,6,7-tetrahydro-2,7-naphthyridine-2(1H)-carboxamide isomer 1]"
12,< 500 nM,"C[C@@H]1CN(C(=O)Nc2cc(Cl)c(C(F)(F)F)cc2F)Cc2ccnc(F)c21 (single isomer, unassigned; isomer 1) [Compound 28, N-(5-chloro-2-fluoro-4-(trifluoromethyl)phenyl)-5-fluoro-4-methyl-3,4-dihydro-2,6-naphthyridine-2(1H)-carboxamide isomer 1]"
13,< 500 nM,"O=C(Nc1nnc(C(F)(F)F)s1)N1CCc2cc(F)ccc2C1 [Compound 9, 6-Fluoro-N-(5-(trifluoromethyl)-1,3,4-thiadiazol-2-yl)-3,4-dihydroisoquinoline-2(1H)-carboxamide]"
14,< 500 nM,"CC1CN(C(=O)Nc2cc(Cl)c(C(F)(F)F)cc2F)Cc2c[nH]c(=O)cc21 (racemic) [Compound 21, (±)-N-(5-chloro-2-fluoro-4-(trifluoromethyl)phenyl)-4-methyl-6-oxo-3,4,6,7-tetrahydro-2,7-naphthyridine-2(1H)-carboxamide]"
15,< 500 nM,"O=C(Nc1cc(Cl)c(C(F)(F)F)cn1)N1CCc2c(ccnc2F)C1 [Compound 16, N-(4-chloro-5-(trifluoromethyl)pyridin-2-yl)-5-fluoro-3,4-dihydro-2,6-naphthyridine-2(1H)-carboxamide]"
16,< 500 nM,"O=C(Nc1cc(Cl)c(C(F)(F)F)cc1F)N1CCc2cc(F)ccc2C1 [Compound 11, N-(5-Chloro-2-fluoro-4-(trifluoromethyl)phenyl)-6-fluoro-3,4-dihydroisoquinoline-2(1H)-carboxamide]"
17,500 to 5000 nM,"O=C(Nc1cc(Cl)c(Cl)cn1)N1CCc2cc(=O)[nH]cc2C1 [Compound 8, N-(4,5-Dichloropyridin-2-yl)-6-oxo-3,4,6,7-tetrahydro-2,7-naphthyridine-2(1H)-carboxamide]"
18,500 to 5000 nM,"N#Cc1ccc2c(c1)CCN(C(=O)Nc1cc(C(F)(F)F)on1)C2 [Compound 6, 6-Cyano-N-(5-(trifluoromethyl)isoxazol-3-yl)-3,4-dihydroisoquinoline-2(1H)-carboxamide]"
19,500 to 5000 nM,"CS(=O)(=O)c1nnc2c(n1)CCN(C(=O)Nc1cc(Cl)c(C(F)(F)F)cc1F)C2 [Compound 18, N-(5-chloro-2-fluoro-4-(trifluoromethyl)phenyl)-3-(methylsulfonyl)-5,8-dihydropyrido[4,3-e][1,2,4]triazine-7(6H)-carboxamide]"
20,< 500 nM,"O=C(Nc1cc(C(F)(F)F)on1)N1CCc2cc(=O)[nH]cc2C1 [Compound 4, 6-Oxo-N-(5-(trifluoromethyl)isoxazol-3-yl)-3,4,6,7-tetrahydro-2,7-naphthyridine-2(1H)-carboxamide]"
21,< 500 nM,"O=C(Nc1cc(Cl)c(C(F)(F)F)cc1F)N1Cc2ccnc(F)c2C(F)C1 (centres unmarked) [Compound 27, N-(5-chloro-2-fluoro-4-(trifluoromethyl)phenyl)-4,5-difluoro-3,4-dihydro-2,6-naphthyridine-2(1H)-carboxamide]"
22,< 500 nM,"C=C1CN(C(=O)Nc2cc(Cl)c(C(F)(F)F)cc2F)Cc2ccnc(F)c21 [Compound 24, N-(5-Chloro-2-fluoro-4-(trifluoromethyl)phenyl)-5-fluoro-4-methylene-3,4-dihydro-2,6-naphthyridine-2(1H)-carboxamide]"
23,500 to 5000 nM,"O=C(Nc1cc(Cl)c(Cl)cn1)N1CCc2cc(F)ncc2C1 [Compound 12, N-(4,5-Dichloropyridin-2-yl)-6-fluoro-3,4-dihydro-2,7-naphthyridine-2(1H)-carboxamide]"
24,500 to 5000 nM,"C=C1CN(C(=O)Nc2cc(Cl)c(C(F)(F)F)cc2F)Cc2cnc(F)cc21 [Compound 22, N-(5-Chloro-2-fluoro-4-(trifluoromethyl)phenyl)-6-fluoro-4-methylene-3,4-dihydro-2,7-naphthyridine-2(1H)-carboxamide]"
25,< 500 nM,"O=C(Nc1cc(Cl)c(C(F)(F)F)cc1F)N1CCc2cc(=O)[nH]cc2C1 [Compound 2, N-(5-Chloro-2-fluoro-4-(trifluoromethyl)phenyl)-6-oxo-3,4,6,7-tetrahydro-2,7-naphthyridine-2(1H)-carboxamide]"
26,< 500 nM,"O=C(Nc1cc(Br)c(C(F)(F)F)cc1F)N1CCc2cc(=O)[nH]cc2C1 [Compound 1, N-(5-bromo-2-fluoro-4-(trifluoromethyl)phenyl)-6-oxo-3,4,6,7-tetrahydro-2,7-naphthyridine-2(1H)-carboxamide]"
27,500 to 5000 nM,"CC1CN(C(=O)Nc2cc(Cl)c(C(F)(F)F)cc2F)Cc2cnc(F)cc21 (centres unmarked) [Compound 20, N-(5-Chloro-2-fluoro-4-(trifluoromethyl)phenyl)-6-fluoro-4-methyl-3,4-dihydro-2,7-naphthyridine-2(1H)-carboxamide]"
28,500 to 5000 nM,"O=C(Nc1cc(Cl)c(C(F)(F)F)cn1)N1CCc2cc(F)ncc2C1 [Compound 13, N-(4-Chloro-5-(trifluoromethyl)pyridin-2-yl)-6-fluoro-3,4-dihydro-2,7-naphthyridine-2(1H)-carboxamide]"
29,500 to 5000 nM,"O=C(Nc1cc(Cl)c(C(F)(F)F)cn1)N1CCc2cc(=O)[nH]cc2C1 [Compound 5, N-(4-chloro-5-(trifluoromethyl)pyridin-2-yl)-6-oxo-3,4,6,7-tetrahydro-2,7-naphthyridine-2(1H)-carboxamide]"
